Laboratory results: PubChem BioAssay (NCI)
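These data come from cells grown in 96-well plates and exposed to compound for 48 hours at five concentrations. TGI denotes the concentration required for complete inhibition of growth.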

How the values were obtained:
Test in all cases: NCI tumour cell line growth inhibition, 48 h
[1] = system: K-562 leukemia
[2] = system: EKVX NSCLC
[3] = system: HT29 colon
[4] = system: OVCAR-4 ovarian
[5] = system: DMS 114 small cell lung
[6] = system: NCI-H23 lung
[7] = system: UO-31 renal
[8] = system: COLO 205 colon
[9] = system: HOP-18 NSCLC
[10] = system: 786-0 renal
[11] = system: SK-MEL-2 melanoma
[12] = system: SF-295 CNS
[13] = system: KM12 colon
[14] = system: U251 CNS
[15] = system: NCI-H460 lung
[16] = system: M14 melanoma
[17] = system: NCI-H226 lung
[18] = system: CCRF-CEM leukemia
[19] = system: HCC-2998 colon
[20] = system: HOP-62 NSCLC
[21] = system: SF-539 CNS
[22] = system: HCT-116 colon
[23] = system: MALME-3M melanoma
[24] = system: KM20L2 colon
[25] = system: SNB-78 CNS
[26] = system: LXFL 529 NSCLC
[27] = system: A549 NSCLC
[28] = system: OVCAR-5 ovarian
[29] = system: RPMI-8226 leukemia
[30] = system: UACC-257 melanoma
[31] = system: SK-MEL-5 melanoma
[32] = system: DLD-1 colon
[33] = system: SK-OV-3 ovarian
[34] = system: OVCAR-8 ovarian
[35] = system: HL-60(TB) leukemia
[36] = system: ACHN renal
[37] = system: SNB-75 CNS
[38] = system: LOX IMVI melanoma
[39] = system: UACC-62 melanoma
[40] = system: M19-MEL melanoma
[41] = system: SF-268 CNS
[42] = system: SN12C renal
[43] = system: IGROV1 ovarian
[44] = system: DMS 273 small cell lung
[45] = system: MOLT-4 leukemia
[46] = system: HCT-15 colon
[47] = system: SK-MEL-28 melanoma
[48] = system: OVCAR-3 ovarian
[49] = system: RXF 393 renal
[50] = system: NCI-H522 lung
[51] = system: SNB-19 CNS
[52] = system: TK-10 renal
[53] = system: CAKI-1 renal
[54] = system: HOP-92 NSCLC
[55] = system: SR leukemia
[56] = system: SW-620 colon
[57] = system: A498 renal
[58] = system: HS 578T breast
[59] = system: PC-3 prostate
[60] = system: MDA-MB-231 breast
[61] = system: MDA-N
[62] = system: BT-549 breast
[63] = system: NCI/ADR-RES ovarian
[64] = system: MCF7 breast
[65] = system: MDA-MB-435
[66] = system: DU-145 prostate
[67] = system: T-47D breast

OC12CC/C(=N/OCc3ccccc3)CC1c1ccccc12 (stereo not drawn)
TGI [1]: > 100 µM | TGI [2]: > 100 µM | TGI [3]: > 100 µM | TGI [4]: > 100 µM | TGI [5]: > 100 µM | TGI [6]: > 100 µM | TGI [7]: > 100 µM | TGI [8]: > 100 µM | TGI [9]: > 100 µM | TGI [10]: > 100 µM | TGI [11]: > 100 µM | TGI [12]: > 100 µM | TGI [13]: > 100 µM | TGI [14]: > 100 µM | TGI [15]: > 100 µM | TGI [16]: > 100 µM | TGI [17]: > 100 µM | TGI [18]: > 100 µM | TGI [19]: > 100 µM | TGI [20]: > 100 µM | TGI [21]: > 100 µM | TGI [22]: > 100 µM | TGI [23]: > 100 µM | TGI [24]: > 100 µM | TGI [25]: > 100 µM | TGI [26]: > 100 µM | TGI [27]: > 100 µM | TGI [28]: > 100 µM | TGI [29]: > 100 µM | TGI [30]: > 100 µM | TGI [31]: > 100 µM | TGI [32]: > 100 µM | TGI [33]: > 100 µM | TGI [34]: > 100 µM | TGI [35]: > 100 µM | TGI [36]: > 100 µM | TGI [37]: > 100 µM | TGI [38]: > 100 µM | TGI [39]: > 100 µM | TGI [40]: > 100 µM | TGI [41]: > 100 µM | TGI [42]: > 100 µM | TGI [43]: > 100 µM | TGI [44]: > 100 µM | TGI [45]: > 100 µM | TGI [46]: > 100 µM | TGI [47]: > 100 µM | TGI [48]: > 100 µM | TGI [49]: > 100 µM | TGI [50]: > 100 µM | TGI [51]: > 100 µM | TGI [52]: > 100 µM | TGI [53]: > 100 µM

CC1(Cl)CC2C(CC1Sc1nnnn1-c1ccccc1)C2(C)C (stereo not drawn)
TGI [1]: > 100 µM | TGI [2]: > 100 µM | TGI [3]: > 100 µM | TGI [4]: > 100 µM | TGI [5]: > 100 µM | TGI [54]: > 100 µM | TGI [6]: > 100 µM | TGI [7]: > 100 µM | TGI [8]: > 100 µM | TGI [11]: > 100 µM | TGI [12]: > 100 µM | TGI [13]: > 100 µM | TGI [15]: > 100 µM | TGI [16]: > 100 µM | TGI [17]: > 100 µM | TGI [18]: > 100 µM | TGI [19]: > 100 µM | TGI [20]: > 100 µM | TGI [21]: > 100 µM | TGI [22]: > 100 µM | TGI [24]: > 100 µM | TGI [25]: > 100 µM | TGI [26]: > 100 µM | TGI [27]: > 100 µM | TGI [28]: > 100 µM | TGI [29]: > 100 µM | TGI [30]: > 100 µM | TGI [31]: > 100 µM | TGI [32]: > 100 µM | TGI [34]: > 100 µM | TGI [35]: 49.4 µM | TGI [36]: > 100 µM | TGI [38]: > 100 µM | TGI [39]: > 100 µM | TGI [40]: > 100 µM | TGI [41]: > 100 µM | TGI [42]: > 100 µM | TGI [43]: > 100 µM | TGI [44]: > 100 µM | TGI [45]: > 100 µM | TGI [55]: > 100 µM | TGI [46]: > 100 µM | TGI [47]: > 100 µM | TGI [48]: > 100 µM | TGI [49]: > 100 µM | TGI [56]: > 100 µM | TGI [51]: > 100 µM | TGI [52]: > 100 µM

C=C(C=O)CCCC(C)[C@@H]1CCC23CC12CCC1[C@@]2(C)CCC(OC(C)=O)C(C)(C)C2CC(OC2OC(COC(C)=O)C(O)C(O)C2O)[C@]13C (stereo partly drawn)
TGI [1]: 6.78 µM | TGI [2]: 13.7 µM | TGI [3]: 11.9 µM | TGI [4]: 11.1 µM | TGI [54]: 12.4 µM | TGI [6]: 14.8 µM | TGI [7]: 11 µM | TGI [8]: 14.4 µM | TGI [9]: 16.1 µM | TGI [10]: 13.2 µM | TGI [11]: 13.9 µM | TGI [12]: 11.6 µM | TGI [13]: 9.53 µM | TGI [57]: 13.3 µM | TGI [14]: 8.56 µM | TGI [15]: 16.1 µM | TGI [16]: 4.57 µM | TGI [17]: 12.8 µM | TGI [18]: 5 µM | TGI [19]: 13.9 µM | TGI [20]: 14.3 µM | TGI [21]: 11.4 µM | TGI [22]: 1.43 µM | TGI [23]: 7.17 µM | TGI [24]: 12.8 µM | TGI [25]: 3.4 µM | TGI [26]: 8.44 µM | TGI [27]: 12.5 µM | TGI [28]: 11.8 µM | TGI [29]: 3.01 µM | TGI [30]: 11.6 µM | TGI [31]: 11.3 µM | TGI [33]: 12 µM | TGI [34]: 11.1 µM | TGI [35]: 2.04 µM | TGI [36]: 9.78 µM | TGI [37]: 11.4 µM | TGI [38]: 1.43 µM | TGI [39]: 3.49 µM | TGI [41]: 12.3 µM | TGI [42]: 5.77 µM | TGI [43]: 7.9 µM | TGI [44]: 13.3 µM | TGI [45]: 3.03 µM | TGI [46]: 7.5 µM | TGI [47]: 1.77 µM | TGI [48]: 8.21 µM | TGI [49]: 11.7 µM | TGI [50]: 1.53 µM | TGI [56]: 1.44 µM | TGI [51]: 13.2 µM | TGI [52]: 12.5 µM | TGI [53]: 10.9 µM

O=C1c2ccccc2-n2c1nc1ccccc1c2=O
TGI [1]: > 44.6 µM | TGI [2]: 35.3 µM | TGI [3]: 51.2 µM | TGI [4]: 53.7 µM | TGI [54]: > 100 µM | TGI [6]: 33.8 µM | TGI [7]: 42.9 µM | TGI [8]: 27.8 µM | TGI [10]: > 100 µM | TGI [58]: 45.2 µM | TGI [59]: > 60.1 µM | TGI [11]: 22.9 µM | TGI [12]: 18.8 µM | TGI [13]: > 67.1 µM | TGI [57]: 59.8 µM | TGI [14]: 37.5 µM | TGI [15]: 12 µM | TGI [60]: > 100 µM | TGI [16]: 11.1 µM | TGI [61]: 32.4 µM | TGI [62]: 45.4 µM | TGI [17]: > 80.1 µM | TGI [18]: > 100 µM | TGI [19]: > 90.4 µM | TGI [20]: 41 µM | TGI [21]: 43.3 µM | TGI [22]: 79.6 µM | TGI [23]: 29 µM | TGI [63]: > 100 µM | TGI [64]: 25.2 µM | TGI [65]: 3.44 µM | TGI [27]: 17 µM | TGI [28]: 29.9 µM | TGI [29]: > 100 µM | TGI [30]: 9.65 µM | TGI [31]: 26 µM | TGI [33]: > 100 µM | TGI [34]: > 82.4 µM | TGI [35]: 41.4 µM | TGI [36]: 29.3 µM | TGI [37]: 83.8 µM | TGI [66]: 24 µM | TGI [38]: 25.1 µM | TGI [39]: 14.5 µM | TGI [41]: > 100 µM | TGI [42]: > 68.8 µM | TGI [43]: > 92.1 µM | TGI [45]: > 100 µM | TGI [55]: > 100 µM | TGI [46]: > 81.3 µM | TGI [47]: 50.7 µM | TGI [48]: 30.2 µM | TGI [49]: > 81.6 µM | TGI [50]: 64.3 µM | TGI [56]: 70.1 µM | TGI [51]: > 91.2 µM | TGI [52]: > 100 µM | TGI [67]: 87.4 µM | TGI [53]: 42.3 µM
